ChEMBL document CHEMBL1201862, “PubChem BioAssay data set” (2004)
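Growth conditions: 96-well plates. Treatment: test compound, 48 hours, 5 concentrations. Analysis: linear interpolation between bracketing concentrations; unreached endpoints set to highest concentration. Abbreviation: GI50, concentration required for 50% inhibition of growth.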 Activity calls are given as the source filed them. Cut-off read from the data, not from the text of the source: active = GI50 up to about 1.1 µM and inactive = higher.

Experiments:
Assay in all cases: inhibition of tumour cell growth, NCI panel, 48 h
786-0 = system: 786-0
A549 = system: A549
BT-549 = system: BT-549
CAKI-1 = system: CAKI-1
COLO 205 = system: COLO 205
EKVX = system: EKVX
Hs-578T = system: Hs-578T
K562 = system: K562
MDA-MB-231 = system: MDA-MB-231
MDA-MB-435 = system: MDA-MB-435
Malme-3M = system: Malme-3M
OVCAR-3 = system: OVCAR-3
OVCAR-4 = system: OVCAR-4
OVCAR-8 = system: OVCAR-8
RXF 393 = system: RXF 393
SK-MEL-2 = system: SK-MEL-2
SK-MEL-5 = system: SK-MEL-5
SN12C = system: SN12C
T47D = system: T47D
TK-10 = system: TK-10

Row | SMILES | GI50 (786-0) | GI50 (A549) | GI50 (BT-549) | GI50 (CAKI-1) | GI50 (COLO 205) | GI50 (EKVX) | GI50 (Hs-578T) | GI50 (K562) | GI50 (MDA-MB-231) | GI50 (MDA-MB-435) | GI50 (Malme-3M) | GI50 (OVCAR-3) | GI50 (OVCAR-4) | GI50 (OVCAR-8) | GI50 (RXF 393) | GI50 (SK-MEL-2) | GI50 (SK-MEL-5) | GI50 (SN12C) | GI50 (T47D) | GI50 (TK-10)
1 | NC(=O)C(C(N)=O)=C(O)/C(O)=C/C(=O)c1ccccc1 | > 100 µM (inactive) | > 100 µM (inactive) | 48.5 µM (inactive) | > 100 µM (inactive) | > 100 µM (inactive) | > 100 µM (inactive) | > 100 µM (inactive) | 0.0652 µM (active) | > 100 µM (inactive) | > 100 µM (inactive) | 39.9 µM (inactive) | 51.4 µM (inactive) | > 100 µM (inactive) | > 100 µM (inactive) | > 100 µM (inactive) | > 100 µM (inactive) | 73.8 µM (inactive) | > 100 µM (inactive) | > 100 µM (inactive) | > 100 µM (inactive)
2 | C=C1C[C@@H](O)[C@@H](Br)C(C)(C)[C@@]12C=CC(O)(CBr)CC2 (stereo partly drawn) | > 100 µM (inactive) | > 100 µM (inactive) | 29.9 µM (inactive) | > 100 µM (inactive) |  | 6.98 µM (inactive) | 45.6 µM (inactive) | 55.8 µM (inactive) | 29 µM (inactive) | 66.5 µM (inactive) | > 100 µM (inactive) | > 100 µM (inactive) | > 100 µM (inactive) | > 100 µM (inactive) | 43.3 µM (inactive) | 86.3 µM (inactive) | 76.7 µM (inactive) | > 100 µM (inactive) | > 100 µM (inactive) | > 100 µM (inactive)
3 | CC(C)OC(=O)Nc1c([N+](=O)[O-])cc(C(F)(F)F)cc1[N+](=O)[O-] | 15.9 µM (inactive) | > 100 µM (inactive) | > 100 µM (inactive) | > 100 µM (inactive) | > 100 µM (inactive) | > 100 µM (inactive) | 35.1 µM (inactive) | > 46.5 µM (inactive) | 59.4 µM (inactive) | > 100 µM (inactive) | > 100 µM (inactive) | > 100 µM (inactive) | > 100 µM (inactive) | 75.7 µM (inactive) | 20.1 µM (inactive) | > 73.1 µM (inactive) | > 100 µM (inactive) | > 91 µM (inactive) | > 100 µM (inactive) | > 100 µM (inactive)
4 | Cc1cc2c(cc1C)N1C(Cl)=C3CCCCC3=C(C#N)C1N2 (stereo not drawn) | 1.92 µM (inactive) | 19.9 µM (inactive) | 2.45 µM (inactive) | 5.04 µM (inactive) | 16.5 µM (inactive) | 16.3 µM (inactive) | 7.85 µM (inactive) | 3.6 µM (inactive) | 8.75 µM (inactive) | 6.03 µM (inactive) | 16.8 µM (inactive) | 16.7 µM (inactive) | 12.3 µM (inactive) | 11.5 µM (inactive) | 14 µM (inactive) | 14.6 µM (inactive) | 3.72 µM (inactive) | 4.71 µM (inactive) | 12.2 µM (inactive) | 5.65 µM (inactive)
5 | COc1ccc2oc(=N)c(C(=O)Nc3cccc4ccccc34)cc2c1 | 11.8 µM (inactive) | 25.1 µM (inactive) | 55.7 µM (inactive) | 29.5 µM (inactive) | > 100 µM (inactive) | 38.1 µM (inactive) | 30.2 µM (inactive) | 0.526 µM (active) | 26 µM (inactive) | 0.319 µM (active) | 8.65 µM (inactive) | 10.4 µM (inactive) | 15.5 µM (inactive) |  | 4.69 µM (inactive) | 18.8 µM (inactive) | > 100 µM (inactive) | 37.8 µM (inactive) | 23.6 µM (inactive) | 19.6 µM (inactive)
6 | COc1cc2cc(C(=O)N3CC(CCl)c4ccc(NCCN)cc43)[nH]c2c(OC)c1OC (stereo not drawn) | 0.228 µM (active) | 0.208 µM (active) | 0.345 µM (active) | 0.143 µM (active) | 0.222 µM (active) | 0.528 µM (active) | 0.472 µM (active) | 0.11 µM (active) | 0.223 µM (active) | 0.2 µM (active) | 0.172 µM (active) | 0.236 µM (active) | 0.263 µM (active) | 0.167 µM (active) | 0.105 µM (active) | 0.179 µM (active) | 0.116 µM (active) | 0.237 µM (active) | 0.301 µM (active) | 0.33 µM (active)
7 | C=CC(C)(C)N[C@@H](C(=O)N1CCC[C@H]1c1nc(-c2nc(C(=O)OCC=C(C)C)c(C)o2)c(C)o1)C(C)C | 19.5 µM (inactive) | 29.9 µM (inactive) | 23.6 µM (inactive) | 35.5 µM (inactive) | 22.4 µM (inactive) | 32.3 µM (inactive) | 18 µM (inactive) | 36.5 µM (inactive) | 21.3 µM (inactive) | 18.5 µM (inactive) | 18.6 µM (inactive) | 23.1 µM (inactive) | 22.8 µM (inactive) | 23.4 µM (inactive) | 30.7 µM (inactive) | 34 µM (inactive) | 22.3 µM (inactive) | 18.5 µM (inactive) | 21.3 µM (inactive) | 24.3 µM (inactive)
